Data from patent US20030228357A1, “Dry granulated formulations of azithromycin” (Pfizer Inc., priority 2002, published 2003).
“Also recorded” adds a separate entry of the source.

Key:
Assay type in all cases: physicochemical
[1] = Slug (compact) hardness, Schleuniger hardness tablet tester
Text: A compaction simulator was used to compress the blends. The compaction simulator was designed as a single station tablet press in which the compression dwell time can be adjusted to simulate different types of tablet presses. All the formulations were slugged on the compaction simulator configured as the Kilian RX-67 press with a dwell time of 0.3145 seconds using […] round flat face tooling. The slugs were then comminuted using a Fitz mill with a 0.125″ screen with knives forward and run at slow speed. […] The slugs were tested for hardness (kP scale), using a Schleuniger hardness tablet tester (Dr. Schleuniger Pharmatron AG, Solothurn, Switzerland).

[2] = Tablet hardness, Schleuniger hardness tablet tester; settings: for Avg Tablet Hardness: Table 4C, low drug loading, diluent MCC
Procedure: (§1) All four formulations were compressed on the compaction simulator using either 0.344″×0.688″ oval tooling, or ½″ standard round concave (SRC) tooling. The tablets were tested for hardness (kP scale), using a Schleuniger hardness tablet tester (Dr. Schleuniger Pharmatron AG, Solothurn, Switzerland), and for friability (100 rotations/4 minutes) using a Vanderkamp Friabulator Tablet Tester (Vankel, Cary, N.C., US).

[3] = Tablet friability, Vanderkamp Friabulator (100 rotations/4 minutes)
Procedure: Friability is a standard test known to one skilled in the art. Friability is measured under standardized conditions by weighing out a certain number of tablets (generally 20 tablets or less), placing them in a rotating Plexiglas drum in which they are lifted during replicate revolutions by a radial lever, and then dropped approximately 8 inches. After replicate revolutions (typically 100 revolutions at 25 rpm), the tablets are reweighed and the percentage of formulation abraded or chipped is calculated. The friability of the tablets, of the present invention, is preferably in the range of about 0% to 3%, and values about 1%, or less, are considered acceptable for most drug and food tablet contexts. Friability which approaches 0% is particularly preferred.
as §1

[4] = Density and Carr's Compressibility Index (flowability) of dry blends and dry granulations
Text: Carr's Compressibility Index was used to evaluate the flowability of the four dry granulations. Carr's Compressibility Index is a simple test to evaluate flowability by comparing both the initial and final (tapped) bulk volumes and the rate of packing down. A useful empirical guide to flow is given by Carr's compressibility index: Compressibility Index(%)=[(tapped density−initial density)/tapped density]×100 […] The procedure is described in Int. J. Pharm. Tech. & Prod. Mfr., 6(3) 10-16, 1985.

[5] = Tablet hardness, Schleuniger hardness tablet tester; settings: for Avg Tab Hardness: Short blend
[6] = Tablet friability, Vanderkamp Friabulator (100 rotations/4 minutes); remark: listed apart in the source
[7] = Indices of tableting performance (Hiestand) of bulk azithromycin; settings: forms N, M, G, A milled, F and J unmilled
Procedure: Indices of tableting performance, for several azithromycin forms, were assessed to identify any mechanical deficiencies or attributes that may affect tablet formulation for these azithromycin forms. This assessment was performed in accordance with the procedures described in “Indices of Tableting, Performance” […] and D. P. Smith, Powder Technology 38 [1984] pp. 145-159. Specifically, the Brittle Fracture Index, BFI, was calculated from the ratio of a material's regular tensile strength to its compromised tensile strength. Strain Index, SI, was determined from the dynamic indentation hardness test. Worst Case Bonding Index was determined by assessing the extent of particle bonding remaining after decompression assuming a very short compression dwell time and a plastic mechanism of particle separation during decompression. Tableting Indices were determined for bulk azithromycin lots of six different crystalline forms, specifically forms N, M, G, A, F and J. Forms N, M and G were milled with a Fitzmill (Model JT, The Fitzpatrick Co., Elmhurst, Ill.) using a 0.027'' screen and knives at high speed in an attempt to match the smaller particle size of milled Form A. Unmilled forms F and J were evaluated “as is” due to their relatively small particle sizes.

[8] = 35.2 wt % azithromycin, dicalcium phosphate anhydrous diluent, Short blend method
[9] = Table 3A, low drug loading: 35.2 wt % azithromycin, 54.8 wt % dicalcium phosphate anhydrous, long blend
[10] = Table 4A, low drug loading (35.2 wt % azithromycin), diluent Lactose
[11] = Table 4B, high drug loading (58.2 wt % azithromycin), diluent Lactose
[12] = Table 5A, 58.2 wt % azithromycin, dicalcium phosphate dihydrate, disintegrant Explotab
[13] = Table 5A, 58.2 wt % azithromycin, dicalcium phosphate dihydrate, disintegrant PVP-XL
[14] = Table 3C, low drug loading (35.2 wt % azithromycin), DCP anhydrous, oval tablets, target weight 750 mg
[15] = Table 4D, high drug loading, diluent Lactose, modified capsule shape
[16] = Table 5B, Explotab, 500 mgA, Oval, Precompression 3.5 kN
[17] = Table 5B, Explotab, 500 mgA, Oval, Precompression No
[18] = Table 5B, PVP-XL, 250 mgA, Modified Capsule, Precompression No
[19] = Table 5B, PVP-XL, 600 mgA, Modified Oval, Precompression No
[20] = 35.2 wt % azithromycin, dicalcium phosphate anhydrous diluent, Short blend method, slugged
[21] = Table 7A, 55.76 wt % azithromycin, lactose anhydrous, corn starch, roller compaction 850 psi
[22] = Table 3D, high drug loading (58.2 wt % azithromycin), DCP anhydrous, modified capsule shape tablets, target weight 450 mg
[23] = Table 5B, Explotab, 250 mgA, Modified Capsule, Precompression No
[24] = Table 5B, PVP-XL, 600 mgA, Modified Oval, Precompression 1.5 kN
[25] = Table 4C, low drug loading, diluent Lactose, Oval tooling
[26] = Table 4C, low drug loading, diluent Lactose, SRC (½″) tooling
[27] = Table 4A, low drug loading (35.2 wt % azithromycin), diluent MCC
[28] = Table 4B, high drug loading (58.2 wt % azithromycin), diluent MCC
[29] = Table 4D, high drug loading, diluent MCC, modified capsule shape
[30] = Table 7A, 55.76 wt % azithromycin, lactose anhydrous, corn starch, roller compaction 850 psi, sesquihydrate
[31] = Table 3B, high drug loading: 58.2 wt % azithromycin, 31.8 wt % dicalcium phosphate anhydrous, long blend
[32] = Table 6A, Drug Loading High (58.2 wt % azithromycin), DCP anhydrous
[33] = Table 6A, Drug Loading Low (35.2 wt % azithromycin), DCP anhydrous
[34] = Table 6B, Drug Loading High, Oval 0.344″ × 0.688″
[35] = Table 6B, Drug Loading Low, Oval 0.344″ × 0.688″
[36] = Table 6B, Drug Loading High, Modified Capsule 0.262″ × 0.531″
[37] = Table 6B, Drug Loading Low, Modified Capsule 0.262″ × 0.531″
[38] = Table 6B, Drug Loading Low, ½″ SRC

## CCC1OC(=O)C(C)C(O[C@H]2C[C@@](C)(OC)[C@@H](O)C(C)O2)C(C)[C@@H](OC2OC(C)CC(N(C)C)[C@H]2O)[C@@](C)(O)C[C@@H](C)CN(C)[C@H](C)[C@@H](O)[C@]1(C)O (some centres unmarked) [Form M, azithromycin monohydrate hemi-isopropanol solvate]
[1]; [8]
  Avg Slug Hardness: 10.9 kP
[1]; [9]
  Avg Slug Hardness: 11 kP
[1]; [10]
  Avg Slug Hardness: 13 kP
[1]; [11]
  Avg Slug Hardness: 11 kP
[1]; [12]
  Avg Slug Hardness: 12 kP
[1]; [13]
  Avg Slug Hardness: 13 kP
[2]; [14]
  Avg Hardness: 8.4 kP
[3]; Table 2B Run 6, Short blend, Oval tooling, compression force 19.4 kN
  Friability: capped
[3]; Table 2B Run 7, Short blend, Oval tooling, compression force 14 kN
  Friability: capped
[3]; [15]
  Friability: 0.28%
[3]; [16]
  Friability: 0.50%
[3]; [17]
  Friability: 2.71%
[3]; [18]
  Friability: 0.25%
[3]; [19]
  Friability: 6.34%
[4]; [8]
  Dry Blend Carr's Index: 36%
  Dry Blend density As Is: 0.68 g/cc
  Dry Blend density Tapped: 1.08 g/cc
[4]; [20]
  Granulation Carr's Index: 28%
  Granulation Density As Is: 0.82 g/cc
  Granulation Density Tapped: 1.14 g/cc
[4]; [9]
  Granulation Carr's Index: 28%
  Granulation Density As Is: 0.82 g/cc
  Granulation Density Tapped: 1.14 g/cc
[4]; [10]
  Dry Granulation Carr's Index: 30%
  Dry Granulation Density As Is: 0.55 g/cc
  Dry Granulation Density Tapped: 0.78 g/cc
[4]; [11]
  Dry Granulation Carr's Index: 29%
  Dry Granulation Density As Is: 0.53 g/cc
  Dry Granulation Density Tapped: 0.75 g/cc
[4]; [12]
  Dry Granulation Carr's Index: 26%
  Dry Granulation Density As Is: 0.67 g/cc
  Dry Granulation Density Tapped: 0.91 g/cc
[4]; [13]
  Dry Granulation Carr's Index: 25%
  Dry Granulation Density As Is: 0.63 g/cc
  Dry Granulation Density Tapped: 0.84 g/cc
[4]; [21]
  Dry Granulation Carr's Index: 24%
  Dry Granulation Density As Is: 0.62 g/cc
  Dry Granulation Density Tapped: 0.82 g/cc
[5]; Table 2B Run 6, Oval tooling, compression force 19.4 kN
  Avg Tab Hardness: 8.4 kP
[5]; Table 2B Run 7, Oval tooling, compression force 14 kN
  Avg Tab Hardness: 5.1 kP
[5]; [22]
  Avg Hardness: 6.1 kP
[5]; [15]
  Avg Tablet Hardness: 5.8 kP
[5]; [23]
  Avg Hardness: 4.5 kP
[5]; [16]
  Avg Hardness: 7.4 kP
[5]; [17]
  Avg Hardness: 5.6 kP
[5]; [18]
  Avg Hardness: 4.9 kP
[5]; [24]
  Avg Hardness: 9.2 kP
[5]; [19]
  Avg Hardness: 4.2 kP
[6]; [22]
  Friability: 0.45%
[6]; [23]
  Friability: 0.33%
[6]; [24]
  Friability: 0.34%
[7]
  Brittle Fracture Index (BFI): 0.10
  Strain Index (SI): 0.0048
  Tensile Strength: 0.79 Mpa
  Worst Case Bonding Index (BIw) × 10^2: 1.0

## CCC1OC(=O)C(C)C(O[C@H]2C[C@@](C)(OC)[C@@H](O)C(C)O2)C(C)[C@@H](OC2OC(C)CC(N(C)C)[C@H]2O)[C@@](C)(O)C[C@@H](C)CN(C)[C@H](C)[C@@H](O)[C@]1(C)O (some centres unmarked) [Form H, azithromycin monohydrate hemi-1,2 propanediol solvate]
[3]; [25]
  Friability: Broken
[3]; [26]
  Friability: 0.53%
[5]; [25]
  Avg Tablet Hardness: 7.0 kP
[5]; [26]
  Avg Tablet Hardness: 7.5 kP

## CC[C@H]1OC(=O)[C@H](C)[C@@H](O[C@H]2C[C@@](C)(OC)[C@@H](O)[C@H](C)O2)[C@H](C)[C@@H](O[C@@H]2O[C@H](C)C[C@H](N(C)C)[C@H]2O)[C@](C)(O)C[C@@H](C)CN(C)[C@H](C)[C@@H](O)[C@]1(C)O [Form G, azithromycin sesquihydrate]
[1]; [27]
  Avg Slug Hardness: 13 kP
[1]; [28]
  Avg Slug Hardness: 9 kP
[2]; Oval tooling
  Avg Tablet Hardness: 6.1 kP
[2]; SRC (½″) tooling
  Avg Tablet Hardness: 5.3 kP
[3]; Table 4C, low drug loading, diluent MCC, Oval tooling
  Friability: 1.30%
[3]; Table 4C, low drug loading, diluent MCC, SRC (½″) tooling
  Friability: 0.78%
[3]; [29]
  Friability: 0.41%
[4]; [27]
  Dry Granulation Carr's Index: 25%
  Dry Granulation Density As Is: 0.51 g/cc
  Dry Granulation Density Tapped: 0.68 g/cc
[4]; [28]
  Dry Granulation Carr's Index: 25%
  Dry Granulation Density As Is: 0.53 g/cc
  Dry Granulation Density Tapped: 0.71 g/cc
[4]; [21]
  Dry Granulation Density Tapped: 0.86 g/cc
[4]; [30]
  Dry Granulation Carr's Index: 22%
  Dry Granulation Density As Is: 0.67 g/cc
[5]; [29]
  Avg Tablet Hardness: 5.8 kP
[7]; sesquihydrate
  Strain Index (SI): 0.0043
  Tensile Strength: 1.03 Mpa
  Worst Case Bonding Index (BIw) × 10^2: 0.8

## CCC1OC(=O)C(C)C(O[C@H]2C[C@@](C)(OC)[C@@H](O)C(C)O2)C(C)[C@@H](OC2OC(C)CC(N(C)C)[C@H]2O)[C@@](C)(O)C[C@@H](C)CN(C)[C@H](C)[C@@H](O)[C@]1(C)O (some centres unmarked) [Form J, azithromycin monohydrate hemi-n-propanol solvate]
[1]; [9]
  Avg Slug Hardness: 14 kP
[1]; [31]
  Avg Slug Hardness: 11 kP
[1]; [32]
  Avg Slug Hardness: 11 kP
[1]; [33]
  Avg Slug Hardness: 14 kP
[2]; [14]
  Avg Hardness: 9.1 kP
[2]; [34]
  Avg Hardness: 10.2 kP
[2]; [35]
  Avg Hardness: 9.1 kP
[3]; [14]
  Friability: broke during friability testing; also recorded: Broken
[3]; [36]
  Friability: 0.38%
[3]; [34]
  Friability: 0.71%
[3]; [37]
  Friability: 0.52%
[3]; [35]
  Friability: Broken Tablets
[3]; [38]
  Friability: 1.46%
[4]; [9]
  Granulation Carr's Index: 22%
  Granulation Density As Is: 0.87 g/cc
  Granulation Density Tapped: 1.12 g/cc
[4]; [31]
  Granulation Carr's Index: 28%
  Granulation Density As Is: 0.67 g/cc
  Granulation Density Tapped: 0.93 g/cc
[4]; [32]
  Dry Granulation Carr's Index: 28%
  Dry Granulation Density As Is: 0.67 g/cc
  Dry Granulation Density Tapped: 0.93 g/cc
[4]; [33]
  Dry Granulation Carr's Index: 22%
  Dry Granulation Density As Is: 0.87 g/cc
  Dry Granulation Density Tapped: 1.12 g/cc
[5]; [22]
  Avg Hardness: 6.5 kP
[5]; [36]
  Avg Hardness: 6.5 kP
[5]; [37]
  Avg Hardness: 6.9 kP
[5]; [38]
  Avg Hardness: 5.4 kP
[6]; [22]
  Friability: 0.38%
[7]
  Brittle Fracture Index (BFI): 0.11
  Strain Index (SI): 0.0043
  Tensile Strength: 0.69 Mpa
  Worst Case Bonding Index (BIw) × 10^2: 0.7
